Assay results reported in PubChem BioAssay (NCI).
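Grown in 96-well plates, cells were treated for 48 hours with each compound at five concentrations. Insufficient inhibition: endpoint recorded as highest concentration tested. TGI denotes the concentration required for complete inhibition of growth.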

Tests used:
Assay in all cases: NCI anticancer screen, dose series, 48 h
A498 renal = test system: A498 renal
U251 CNS = test system: U251 CNS
UO-31 renal = test system: UO-31 renal
SW-620 colon = test system: SW-620 colon
IGROV1 ovarian = test system: IGROV1 ovarian
SF-539 CNS = test system: SF-539 CNS
OVCAR-8 ovarian = test system: OVCAR-8 ovarian
OVCAR-3 ovarian = test system: OVCAR-3 ovarian
SK-MEL-28 melanoma = test system: SK-MEL-28 melanoma
MALME-3M melanoma = test system: MALME-3M melanoma
SK-MEL-2 melanoma = test system: SK-MEL-2 melanoma
MDA-MB-435 = test system: MDA-MB-435
RXF 393 renal = test system: RXF 393 renal
M14 melanoma = test system: M14 melanoma
SF-295 CNS = test system: SF-295 CNS
NCI-H460 lung = test system: NCI-H460 lung
HL-60(TB) leukemia = test system: HL-60(TB) leukemia
LOX IMVI melanoma = test system: LOX IMVI melanoma
SNB-75 CNS = test system: SNB-75 CNS
CAKI-1 renal = test system: CAKI-1 renal
TK-10 renal = test system: TK-10 renal
COLO 205 colon = test system: COLO 205 colon
MDA-MB-231 breast = test system: MDA-MB-231 breast
NCI-H522 lung = test system: NCI-H522 lung
SF-268 CNS = test system: SF-268 CNS
CCRF-CEM leukemia = test system: CCRF-CEM leukemia
SNB-19 CNS = test system: SNB-19 CNS
HOP-62 NSCLC = test system: HOP-62 NSCLC
T-47D breast = test system: T-47D breast
SR leukemia = test system: SR leukemia
HT29 colon = test system: HT29 colon
OVCAR-4 ovarian = test system: OVCAR-4 ovarian
RPMI-8226 leukemia = test system: RPMI-8226 leukemia
PC-3 prostate = test system: PC-3 prostate
SN12C renal = test system: SN12C renal
786-0 renal = test system: 786-0 renal
HS 578T breast = test system: HS 578T breast
K-562 leukemia = test system: K-562 leukemia
UACC-62 melanoma = test system: UACC-62 melanoma
NCI-H226 lung = test system: NCI-H226 lung
MOLT-4 leukemia = test system: MOLT-4 leukemia
SK-MEL-5 melanoma = test system: SK-MEL-5 melanoma
OVCAR-5 ovarian = test system: OVCAR-5 ovarian
KM12 colon = test system: KM12 colon
HOP-92 NSCLC = test system: HOP-92 NSCLC
MCF7 breast = test system: MCF7 breast
HCC-2998 colon = test system: HCC-2998 colon
A549 NSCLC = test system: A549 NSCLC
HCT-116 colon = test system: HCT-116 colon
UACC-257 melanoma = test system: UACC-257 melanoma
NCI-H23 lung = test system: NCI-H23 lung
NCI/ADR-RES ovarian = test system: NCI/ADR-RES ovarian
BT-549 breast = test system: BT-549 breast
ACHN renal = test system: ACHN renal
EKVX NSCLC = test system: EKVX NSCLC
DU-145 prostate = test system: DU-145 prostate
MDA-N = test system: MDA-N
HCT-15 colon = test system: HCT-15 colon
SK-OV-3 ovarian = test system: SK-OV-3 ovarian
DMS 273 small cell lung = test system: DMS 273 small cell lung
RXF-631 renal = test system: RXF-631 renal
SNB-78 CNS = test system: SNB-78 CNS
KM20L2 colon = test system: KM20L2 colon
HOP-18 NSCLC = test system: HOP-18 NSCLC
LXFL 529 NSCLC = test system: LXFL 529 NSCLC

Measured: TGI

COc1cc(-c2[o+]c3cc(O)cc(O)c3cc2O)cc(O)c1O
75.9 µM: CCRF-CEM leukemia
46.3 µM: MCF7 breast
38.3 µM: MDA-MB-435
not listed: DMS 273 small cell lung | RXF-631 renal | SNB-78 CNS | KM20L2 colon | HOP-18 NSCLC | LXFL 529 NSCLC
> 100 µM: all other assays above

O=C(Nc1cccc2c1[nH]c1c(-c3ccccc3)nccc12)c1ccccc1[N+](=O)[O-]
9.05 µM: HOP-92 NSCLC
90.2 µM: RXF 393 renal
9.7 µM: NCI-H226 lung
78.1 µM: NCI-H460 lung
88 µM: SF-295 CNS
60.3 µM: A498 renal
63.2 µM: OVCAR-5 ovarian
70.4 µM: CAKI-1 renal
97 µM: SF-539 CNS
41.2 µM: HCT-15 colon
not listed: UO-31 renal | OVCAR-3 ovarian | MDA-MB-435 | MDA-MB-231 breast | NCI-H522 lung | HOP-62 NSCLC | T-47D breast | PC-3 prostate | 786-0 renal | HS 578T breast | UACC-62 melanoma | SK-MEL-5 melanoma | MCF7 breast | NCI/ADR-RES ovarian | BT-549 breast | DU-145 prostate | MDA-N | SK-OV-3 ovarian
> 100 µM: all other assays above

CCOc1cc2oc(C)cc(=O)c2c(OC)c1C=Nc1ccc(Cn2c(C)nc3ccccc32)cc1
not listed: DMS 273 small cell lung | RXF-631 renal | SNB-78 CNS | KM20L2 colon | HOP-18 NSCLC | LXFL 529 NSCLC
> 100 µM: all other assays above
